Test results taken from patent US8034811B2, “Hydroxamic acid esters and pharmaceutical use thereof” (Leo Pharma A/S, priority 2003, dated 2011).

target: T1, human intracellular domain of KDR (VEGF Receptor-2) (Homo sapiens, UniProt P35968); assay: In vitro KDR kinase assay; format: biochemical; conditions: IC50 as molar concentration; GST-KDR-cyt, substrate phospholipase Cγ, ATP 100 μM, 30 min room temperature, time-resolved fluorometry
T1 construct: A fusion protein containing the intracellular domain (amino acids 793 to 1357) of the KDR and N-terminally tagged to GST; made in house; host or cells: Sf9 insect cells (baculovirus, pDEST20) for GST-KDR-cyt; E. coli BL21 (pGEX-4T-1) for GST-PLCγ
T1 sequence (P35968 794-1356 limits assumed): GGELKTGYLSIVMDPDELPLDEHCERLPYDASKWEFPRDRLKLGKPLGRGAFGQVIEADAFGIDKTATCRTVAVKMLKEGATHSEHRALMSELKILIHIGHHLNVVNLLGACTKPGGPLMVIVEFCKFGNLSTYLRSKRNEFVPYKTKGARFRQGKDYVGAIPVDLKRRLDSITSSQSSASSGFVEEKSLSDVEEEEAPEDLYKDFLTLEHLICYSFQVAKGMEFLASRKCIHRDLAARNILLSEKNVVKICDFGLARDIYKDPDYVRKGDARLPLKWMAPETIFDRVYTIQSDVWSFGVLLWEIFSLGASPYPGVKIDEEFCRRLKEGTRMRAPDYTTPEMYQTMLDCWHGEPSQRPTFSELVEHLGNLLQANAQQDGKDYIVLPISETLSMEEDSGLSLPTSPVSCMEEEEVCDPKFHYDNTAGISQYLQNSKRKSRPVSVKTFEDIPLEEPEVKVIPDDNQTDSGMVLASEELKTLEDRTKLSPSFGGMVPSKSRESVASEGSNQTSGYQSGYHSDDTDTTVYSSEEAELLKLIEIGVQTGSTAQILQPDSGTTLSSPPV
Summary of the method: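 Sf9-expressed, constitutively active human KDR intracellular domain, diluted 3000–3500 fold, incubated 30 min at room temperature with 100 μM ATP on phospholipase Cγ-coated wells in TBS pH 7.4 with Mg acetate, compounds up to 10 μM, 0.1% DMSO max. Phosphotyrosine detected by Eu-PY-20 time-resolved fluorescence; IC50 by linear interpolation around 50% inhibition.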

Structure (SMILES)	IC50 [nM]
O=C(NOCc1ccc(F)cc1)c1ccccc1NCc1ccc2occc2c1 [Compound 199, 2-[(Benzofuran-5-ylmethyl)-amino]-N-(4-fluoro-benzyloxy)-benzamide]	50.1
N#Cc1ccc(CONC(=O)c2ccccc2NCc2ccnc(N)c2)cc1 [Compound 206, 2-[(2-Amino-pyridin-4-ylmethyl)-amino]-N-(4-cyano-benzyloxy)-benzamide]	39.8
O=C(NOCc1ccc(F)cc1)c1ccccc1NCc1ccnc(N2CCOCC2)c1 [Compound 207, N-(4-Fluoro-benzyloxy)-2-[(2-morpholin-4-yl-pyridin-4-ylmethyl)-amino]-benzamide]	79.4
CNC(=O)Nc1cc(CNc2ccccc2C(=O)NOCC2CCCC2)ccn1 [Compound 212, N-Cyclopentylmethoxy-2-{[2-(3-methyl-ureido)-pyridin-4-ylmethyl]-amino}-benzamide]	10
CNC(=O)Nc1cc(CNc2ccccc2C(=O)NOCc2ccc(C)c(F)c2F)ccn1 [Compound 213, N-(2,3-Difluoro-4-methyl-benzyloxy)-2-{[2-(3-methyl-ureido)-pyridin-4-ylmethyl]-amino}-benzamide]	7.94
CCOC(=O)CNC(=O)Nc1cc(CNc2ccccc2C(=O)NOCc2ccc(C#N)cc2)ccn1 [compound 214]	50.1
CCOC(=O)CNC(=O)Nc1cc(CNc2ccccc2C(=O)NOCC2CCCC2)ccn1 [compound 215]	63.1
O=C(O)CNC(=O)Nc1cc(CNc2ccccc2C(=O)NOCC2CCCC2)ccn1 [compound 217]	7.94
C=C(C)C(=O)OCCNC(=O)Nc1cc(CNc2ccccc2C(=O)NOCC2CCCC2)ccn1 [compound 219]	39.8
CC(=O)OCC(=O)Nc1cc(CNc2ccccc2C(=O)NOCC2CCCC2)ccn1 [compound 223]	31.6
CCOC(=O)Nc1cc(CNc2ccccc2C(=O)NOCc2ccc(C#N)cc2)ccn1 [compound 225]	7.94
N#Cc1ccc(CONC(=O)c2ccccc2NCc2ccnc(NC(=O)C3CC3)c2)cc1 [compound 226]	6.31
O=C(NOCC1CCCC1)c1ccccc1NCc1ccnc(NC(=O)C2CC2)c1 [compound 227]	5.01
Nc1cc(CNc2ccccc2C(=O)NOCC2CCCC2)ccn1 [compound 229]	7.94
O=C(NOCc1ccccc1)c1ccccc1NCc1ccnc2ccccc12 [compound 230]	25.1
N#Cc1ccc(CONC(=O)c2ccccc2NCc2ccnc3ccccc23)cc1 [compound 231]	39.8
Cc1nc(CONC(=O)c2ccccc2NCc2ccnc3ccccc23)cs1 [compound 232]	20
O=C(NOCC1CCOCC1)c1ccccc1NCc1ccnc2ccccc12 [compound 234]	63.1
COc1ccc(CNc2ccccc2C(=O)NOCc2ccc(C#N)cc2OC)cn1 [compound 235]	63.1
COc1ccc(CNc2ccccc2C(=O)NOCc2ccccc2)cn1 [compound 236]	79.4
COc1ccc(CNc2ccccc2C(=O)NOCc2ccc(C#N)cc2)cn1 [compound 237]	79.4
CC(Nc1ccccc1C(=O)NOCc1ccc(C#N)cc1)c1ccncc1 (stereo not drawn) [compound 244]	63.1
CNC(=O)Nc1cc(CNc2ccccc2C(=O)NOCC2CCCCO2)ccn1 (stereo not drawn) [compound 245]	7.94
N#Cc1ccc(CONC(=O)c2ccccc2NCc2ccc(=O)[nH]c2)cc1 [compound 247]	50.1

Continued by falling IC50, values first:

IC50 [nM]	Structure (SMILES)
79.4	CS(=O)(=O)Nc1cc(CNc2ccccc2C(=O)NOCC2CCCC2)ccn1 [Compound 208, N-Cyclopentylmethoxy-2-[(2-methanesulfonylamino-pyridin-4-ylmethyl)-amino]-benzamide]
63.1	O=C(NOCc1ccc(F)cc1)c1ccccc1NCc1ccnc(Br)c1 [Compound 204, 2-[(2-Bromo-pyridin-4-ylmethyl)-amino]-N-(4-fluoro-benzyloxy)benzamide]
20	CNC(=O)Nc1cc(CNc2ccccc2C(=O)NOCc2ccc(C#N)cc2OC)ccn1 [Compound 211, N-(4-Cyano-2-methoxy-benzyloxy)-2-{[2-(3-methyl-ureido)-pyridin-4-ylmethyl]-amino}-benzamide]
20	COCC(=O)Nc1cc(CNc2ccccc2C(=O)NOCC2CCCC2)ccn1 [compound 246]
10	N#Cc1ccc(CONC(=O)c2ccccc2NCc2ccnc(NC(=O)NCC(=O)O)c2)cc1 [compound 216]
10	O=C(NOCC1CCCC1)c1ccccc1NCc1ccnc2ccccc12 [compound 233]
7.94	CNC(=O)Nc1cc(CNc2ccccc2C(=O)NOCc2ccc(C#N)cc2)ccn1 [Compound 210, N-(4-Cyano-benzyloxy)-2-{[2-(3-methyl-ureido)-pyridin-4-ylmethyl]-amino}-benzamide]
7.94	N#Cc1ccc(CONC(=O)c2ccccc2NCc2ccnc(NC(=O)NCCO)c2)cc1 [compound 220]
7.94	O=C(NCCO)Nc1cc(CNc2ccccc2C(=O)NOCC2CCCC2)ccn1 [compound 221]
6.31	CC(=O)OCC(=O)Nc1cc(CNc2ccccc2C(=O)NOCc2ccc(C#N)cc2)ccn1 [compound 222]
6.31	N#Cc1ccc(CONC(=O)c2ccccc2NCc2ccnc(NC(=O)CO)c2)cc1 [compound 224]
6.31	O=C(CC1NC(=O)NC1=O)Nc1cc(CNc2ccccc2C(=O)NOCC2CCCC2)ccn1 (stereo not drawn) [compound 228]
